From ChEMBL document CHEMBL6182910, “Design, Synthesis, and Biological Evaluation of 4-(Difluoromethyl)-1H-imidazole-5-carboxylic Acids/4-(3-Cyanophenoxy)pyrimidine-5-carboxylic Acids as P2Y1 Receptor Antagonists for Ischemic Stroke Treatment” (J Med Chem, 2025) come the findings set out here.

SMILES strings stand for the structures.

For test [1], the system named is Plasma. As to the kind of experiment: Anti-platelet aggregation in platelet-rich plasma of male Japanese white rabbit assessed as inhibition of ADP-induced platelet aggregation preincubated for 15 mins followed by ADP addition measured up to 10 mins by Born's turbidometric method. As to conditions: Oryctolagus cuniculus; call rule not given here. Format: functional, cell-free.
Test [2] relates to HT-22. As to the kind of experiment: Neuroprotective activity against H2O2-induced oxidative stress in mouse HT-22 cells assessed as cell viability at 10 uM preincubated for 2 hrs followed by H2O2 addition measured after 24 hrs by MTT assay (reference value: 55 +/- 4.6 %). Format: functional. As to conditions: time 26 hrs, read-out: Activity. For orientation: Tetrazolium dyes change colour on reduction, which living cells bring about.

Test [3] relates to Plasma. In words: Anti-platelet aggregation in platelet-rich plasma of male male Sprague-Dawley rat assessed as inhibition of ADP-induced platelet aggregation preincubated for 15 mins followed by ADP addition measured up to 10 mins by Born's turbidometric method. Format: functional, cell-free.
The subject of test [4] is Plasma. As to the kind of experiment: Anti-platelet aggregation in platelet-rich plasma of male human assessed as inhibition of ADP-induced platelet aggregation preincubated for 15 mins followed by ADP addition measured up to 10 mins by Born's turbidometric method. Format: functional, cell-free.
Test [5] is described as follows: Antagonist activity at P2Y12 receptor in platelet-rich plasma of male Japanese white rabbit assessed as inhibition of VASP phosphorylation at Ser239 pretreated for 10 mins followed by PGE1/ADP addition measured after 10 mins by ELISA. The class given is cell-free. Particulars: Oryctolagus cuniculus.
Test [6] concerns the target P2Y purinoceptor 12 (Rattus norvegicus, UniProt Q9EPX4). In words: Antagonist activity at P2Y12 receptor in platelet-rich plasma of male Sprague-Dawley rat assessed as inhibition of VASP phosphorylation at Ser239 pretreated for 10 mins followed by PGE1/ADP addition measured after 10 mins by ELISA. Format: cell-free. For orientation: An ELISA detects its analyte on a solid surface through an enzyme-linked reagent.

Test [7] concerns Rattus norvegicus. As to the kind of experiment: Anti-platelet aggregation in Sprague-Dawley rat assessed as inhibition of ADP-induced platelet aggregation at 10 mg/kg, po measured for 15 mins in presence of 2.5 uM ADP by cell counter analysis relative to control. Format: functional. Particulars: 0.25 h.
Test [8] concerns Rattus norvegicus. In words: Anti-platelet aggregation in Sprague-Dawley rat assessed as inhibition of ADP-induced platelet aggregation at 10 mg/kg, po measured for 15 mins in presence of 5 uM ADP by cell counter analysis relative to control. The class given is functional. As to conditions: 0.25 h.
The test system of test [9] is Rattus norvegicus. As to the kind of experiment: Anti-platelet aggregation in Sprague-Dawley rat assessed as inhibition of ADP-induced platelet aggregation at 10 mg/kg, po measured for 15 mins in presence of 10 uM ADP by cell counter analysis relative to control. Format: functional. Particulars: 0.25 h.
Test [10] is described as follows: Antioxidant activity assessed as inhibition of DPPH radical scavenging activity incubated for 30 mins under dark condition by absorbance based method. The class given is functional.
Test [11] has as its system Rattus norvegicus. In words: Anti-platelet aggregation in Sprague-Dawley rat assessed as inhibition of ADP-induced platelet aggregation at 6 mg/kg, po measured for 15 mins in presence of 5 uM ADP by cell counter analysis relative to control. The class given is functional. As to conditions: 0.25 h.
For test [12], the system named is Rattus norvegicus. In words: Anti-platelet aggregation in Sprague-Dawley rat assessed as inhibition of ADP-induced platelet aggregation at 6 mg/kg, po measured for 15 mins in presence of 2.5 uM ADP by cell counter analysis relative to control. The class given is functional. Particulars: 0.25 h.
Test [13] relates to Rattus norvegicus. As to the kind of experiment: Anti-platelet aggregation in Sprague-Dawley rat assessed as inhibition of ADP-induced platelet aggregation at 6 mg/kg, po measured for 15 mins in presence of 10 uM ADP by cell counter analysis relative to control. The class given is functional. As to conditions: 0.25 h.
Test [14] relates to Rattus norvegicus. In words: Neuroprotective activity in MCAO-induced brain damage Sprague-Dawley rat model assessed as reduction in brain infarction size at 6 mg/kg, iv administered immediately after arterial occlusion measured after 24 hrs by TTC staining based analysis relative to control. Details: scale not given: the % may be the effect or the level left. The class given is functional.

The test system of test [15] is Rattus norvegicus. In words: Neuroprotective activity in MCAO-induced brain damage Sprague-Dawley rat model assessed as reduction in brain water content at 6 mg/kg, iv administered immediately after arterial occlusion measured after 24 hrs. The class given is functional, organism-based.
Test [16] deals with Rattus norvegicus. As to the kind of experiment: Neuroprotective activity in MCAO-induced brain damage Sprague-Dawley rat model assessed as plasma MDA level at 6 mg/kg, iv administered immediately after arterial occlusion measured after 24 hrs (reference value: 51.7 %). The class given is functional.
Test [17] deals with Rattus norvegicus. In words: Neuroprotective activity in MCAO-induced brain damage Sprague-Dawley rat model assessed as plasma GSH-px level at 6 mg/kg, iv administered immediately after arterial occlusion measured after 24 hrs. The class given is functional.
The nature of test [18]: Antagonist activity at P2Y1 receptor in platelet-rich plasma of male Japanese white rabbit assessed as inhibition of ADP-induced cytosolic Ca2+ level pretreated for 5 mins followed by ADP addition by FLUO-4 AM dye based analysis. The class given is cell-free. Particulars: Oryctolagus cuniculus.
For test [19], the target named is P2Y purinoceptor 1 (Rattus norvegicus, UniProt P49651). As to the kind of experiment: Antagonist activity at P2Y1 receptor in platelet-rich plasma of rat assessed as inhibition of ADP-induced cytosolic Ca2+ level pretreated for 5 mins followed by ADP addition by FLUO-4 AM dye based analysis. The class given is functional, cell-free.
Chain of P2Y purinoceptor 1 (P49651 whole entry): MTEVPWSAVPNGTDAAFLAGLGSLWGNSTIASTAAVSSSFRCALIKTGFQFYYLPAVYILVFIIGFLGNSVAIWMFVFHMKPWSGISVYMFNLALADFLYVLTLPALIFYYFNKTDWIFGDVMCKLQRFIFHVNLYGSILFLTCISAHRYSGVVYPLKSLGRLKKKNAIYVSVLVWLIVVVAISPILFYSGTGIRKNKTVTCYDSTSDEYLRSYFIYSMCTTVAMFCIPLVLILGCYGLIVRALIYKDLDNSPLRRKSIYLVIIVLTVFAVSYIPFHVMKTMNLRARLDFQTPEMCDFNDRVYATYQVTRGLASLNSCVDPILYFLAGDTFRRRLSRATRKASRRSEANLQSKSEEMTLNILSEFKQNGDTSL
For test [20], the species on record is Oryctolagus cuniculus. In words: Antagonist activity at P2Y12 receptor in platelet-rich plasma of male Japanese white rabbit assessed as inhibition of VASP phosphorylation at Ser239 at 30 uM pretreated for 10 mins followed by PGE1/ADP addition measured after 10 mins by ELISA relative to control. As to conditions: time 20.0 min. Format: cell-free.
Test [21] deals with P2Y purinoceptor 12 (Rattus norvegicus) (UniProt Q9EPX4). As to the kind of experiment: Antagonist activity at P2Y12 receptor in platelet-rich plasma of male Sprague-Dawley rat assessed as inhibition of VASP phosphorylation at Ser239 at 30 uM pretreated for 10 mins followed by PGE1/ADP addition measured after 10 mins by ELISA relative to control. The class given is cell-free. As to conditions: time 20.0 min.
Chain of P2Y purinoceptor 12 (Rattus norvegicus) (Q9EPX4 whole entry): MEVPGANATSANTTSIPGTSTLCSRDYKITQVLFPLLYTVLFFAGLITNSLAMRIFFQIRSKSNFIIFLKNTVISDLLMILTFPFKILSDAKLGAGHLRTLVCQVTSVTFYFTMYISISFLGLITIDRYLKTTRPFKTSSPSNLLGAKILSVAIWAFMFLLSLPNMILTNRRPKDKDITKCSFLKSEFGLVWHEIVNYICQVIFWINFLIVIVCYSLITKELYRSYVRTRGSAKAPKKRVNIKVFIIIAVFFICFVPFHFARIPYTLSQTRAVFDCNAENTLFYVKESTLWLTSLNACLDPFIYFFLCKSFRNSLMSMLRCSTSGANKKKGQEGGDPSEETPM

Test [22] has as its system Rattus norvegicus. As to the kind of experiment: Neuroprotective activity in MCAO-induced brain damage Sprague-Dawley rat model assessed as reduction in brain water content at 10 mg/kg, iv administered immediately after arterial occlusion measured after 24 hrs. The class given is functional, organism-based.
In test [23] the test system is Rattus norvegicus. In words: Neuroprotective activity in MCAO-induced brain damage Sprague-Dawley rat model assessed as plasma MDA level at 10 mg/kg, iv administered immediately after arterial occlusion measured after 24 hrs (reference value: 51.7 %). Format: functional.
In test [24] the test system is Rattus norvegicus. As to the kind of experiment: Neuroprotective activity in MCAO-induced brain damage Sprague-Dawley rat model assessed as plasma GSH-px level at 10 mg/kg, iv administered immediately after arterial occlusion measured after 24 hrs. The class given is functional.
Test [25] concerns Rattus norvegicus. In words: Neuroprotective activity in MCAO-induced brain damage Sprague-Dawley rat model assessed as reduction in brain infarction size at 10 mg/kg, iv administered immediately after arterial occlusion measured after 24 hrs by TTC staining based analysis relative to control. The class given is functional. Set-up: scale not given: the % may be the effect or the level left.

Chain of P2Y purinoceptor 12 (Q9EPX4 whole entry): as above

What is called IC50 is the midpoint of a concentration-inhibition curve. The inhibition in vivo is the share of the control response that was lost under treatment. `CCCSc1nc(N[C@@H]2C[C@H]2c2ccc(F)c(F)c2)c2nnn([C@@H]3C[C@H](OCCO)[C@@H](O)[C@H]3O)c2n1` [TICAGRELOR]: the 50% inhibitory concentration (IC50) in test [1] worked out at 0.5 µM; in test [3] it was 0.56 µM; in test [4], 0.69 µM; in test [5] it was 2.89 µM; in [6], 2.11 µM. Further, the viability at 10 µM in [2] amounted to 76%. The figures for the inhibition in vivo at 10 mg/kg in test [7], in test [8] and in test [9] were 71.8%, 73.7% and 77.7%, respectively.

Consider `CC1=NN(c2ccccc2)C(=O)C1` [EDARAVONE], for which the IC50 in test [10] came to 23.6 µM. For the same compound, the inhibition in vivo at 6 mg/kg in [11] came out at 48.5%; in test [12] it was 55.4%; in [13], 29.4%. In addition, the Activity was 35.7% in [14], “Active; Water Content Did Not Return To Blank Level” in test [15], 31% in [16] and 579.3 U/ml in [17].

The term inhibition denotes the relative decrease from the control value, in per cent. As to `CC(C)(C)c1ccccc1Oc1ncccc1NC(=O)Nc1ccc(OC(F)(F)F)cc1`, the IC50 was determined as 4.42 µM in test [1]; 3.31 µM in test [3]; 3.4 µM in test [4]; 2.5 µM in test [18]; 2.66 µM in [19]. The viability at 10 µM in test [2] turned out to be 82.6%. The figures for the inhibition in [20] and in test [21] were 30.3% and 37.6%, respectively. The inhibition in vivo at 10 mg/kg was 65.9% in test [7], 64.6% in test [8] and 34.4% in [9]. The Activity result in [22] is “Active; Water Content Did Not Return To Blank Level”; in test [23], 44.1%; in [24] it was 489.1 U/ml.

Consider `Cc1nc(-c2cccc(C#N)c2)n(OCc2ccc(C#N)cc2)c1C(=O)O`, for which the IC50 in [1] is 3.5 µM; in [3] it was 3.84 µM; in test [4], 4.24 µM; in [18], 4.07 µM; in test [19] it was 2.95 µM. Further, the viability at 10 µM in [2] came to 81.3%. Besides, the inhibition in test [20] worked out at 27.9%; in test [21] (filed as antagonist), 40.8%. The results for the inhibition in vivo at 10 mg/kg in [7], in [8] and in test [9] were 34.9%, 35.1% and 19.1%, respectively. Also, the Activity in [25] was 33.6%; in [22] it was “Active; Water Content Did Not Return To Blank Level”; in test [23], 48.8%; in test [24], 677.6 U/ml.
